Tests used:
[1] = system: E-cadherin linker segment; experiment: Titration of immunized mice sera against the E-cadherin linker segment peptides (FIG. 6); assay type: binding; details: immunization of mice
Text: Polyclonal antibodies against synthetic peptides pep_VLS02 (RKAQPVEAGLQIPAC; SEQ ID NO: 4) and pep_VLS03 (VEAGLQIPAC; SEQ ID NO: 3) were produced according to methods known in the art.

MMP-9 = MMP-9 (Homo sapiens, UniProt P14780); experiment: MMP-9 enzymatic activity / E-cadherin cleavage assay; assay type: biochemical
Method: The synthetic peptide pep_VLS02 was used as a competitive inhibitor of MMP-9. The MMP-9 enzymatic activity is reduced in the presence of synthetic peptide (FIG. 10). The inhibitory effect of pep_VLS02 against cleavage of E-cadherin opens a new window for the development of new inhibitors.
On the other hand, when the polyclonal antibody pAb_VLS02 is added to the assay, in the presence of its corresponding peptide, the MMP-9 activity was reestablished (FIG. 10). Thus, pep_VLS02 and its correspondent polyclonal antibody modulate MMP-9 activity and inhibit the E-cadherin cleavage.

Sequence of MMP-9 (P14780 94-707, species assumed): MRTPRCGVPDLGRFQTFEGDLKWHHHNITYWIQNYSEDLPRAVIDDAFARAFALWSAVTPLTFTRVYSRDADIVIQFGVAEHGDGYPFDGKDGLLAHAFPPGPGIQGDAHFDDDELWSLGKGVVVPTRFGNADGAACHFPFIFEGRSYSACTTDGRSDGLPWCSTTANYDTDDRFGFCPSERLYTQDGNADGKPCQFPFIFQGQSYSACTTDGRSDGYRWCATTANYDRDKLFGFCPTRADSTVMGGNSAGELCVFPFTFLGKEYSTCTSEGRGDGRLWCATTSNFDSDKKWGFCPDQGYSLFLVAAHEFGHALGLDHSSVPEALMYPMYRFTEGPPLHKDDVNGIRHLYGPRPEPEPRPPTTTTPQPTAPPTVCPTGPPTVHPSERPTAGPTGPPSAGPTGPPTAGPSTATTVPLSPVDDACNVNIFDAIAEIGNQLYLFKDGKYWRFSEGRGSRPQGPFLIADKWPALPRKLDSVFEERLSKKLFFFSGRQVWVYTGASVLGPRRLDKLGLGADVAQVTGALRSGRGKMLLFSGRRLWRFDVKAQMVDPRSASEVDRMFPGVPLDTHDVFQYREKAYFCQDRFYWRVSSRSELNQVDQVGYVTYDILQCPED

E-cadherin cleavage by a metalloprotease (MMP-9; FIG. 10)	MMP-9 enzymatic activity (MMP-9; in the presence of synthetic peptide as competitive inhibitor)	Sequence	immunogenic capacity [1]
inhibit E-cadherin cleavage	reduced	RKAQPVEAGLQIPAC [pep_VLS02, synthetic antigenic peptide covering the cleavage site of E-cadherin plus a cysteine residue at the end]	confirmed the immunogenic capacity
		VEAGLQIPAC [pep_VLS03, synthetic antigenic peptide of the E-cadherin linker segment plus a cysteine residue]	confirmed the immunogenic capacity

Source: patent publication US10738127B2, “Monoclonal antibodies prevent cell surface protein shedding and block tumor growth” (VERITAS BIOTECNOLOGIA LTDA, priority 2016, dated 2020)
